Among the data in US6127382A, “Amines substituted with a tetrahydroquinolinyl group an aryl or heteroaryl group and an alkyl group, having retinoid-like biological activity” (Allergan Sales, Inc., priority 1999, dated 2000) are EC50, Emax and Ki values, retold here.

For orientation: pEC50 means the EC50 on a negative log10 scale, so that one unit is a factor of ten. One may read the pKi as the negative decadic logarithm of the Ki, by convention in mol/L.

The structures appear in SMILES notation. pEC50, pKi: −log10 of the molar value.

One test deals with T1, RXRβ (Mus musculus, UniProt P28704).
T1 construct: expressed in transfected cells
T1 sequence (P28704 1-520): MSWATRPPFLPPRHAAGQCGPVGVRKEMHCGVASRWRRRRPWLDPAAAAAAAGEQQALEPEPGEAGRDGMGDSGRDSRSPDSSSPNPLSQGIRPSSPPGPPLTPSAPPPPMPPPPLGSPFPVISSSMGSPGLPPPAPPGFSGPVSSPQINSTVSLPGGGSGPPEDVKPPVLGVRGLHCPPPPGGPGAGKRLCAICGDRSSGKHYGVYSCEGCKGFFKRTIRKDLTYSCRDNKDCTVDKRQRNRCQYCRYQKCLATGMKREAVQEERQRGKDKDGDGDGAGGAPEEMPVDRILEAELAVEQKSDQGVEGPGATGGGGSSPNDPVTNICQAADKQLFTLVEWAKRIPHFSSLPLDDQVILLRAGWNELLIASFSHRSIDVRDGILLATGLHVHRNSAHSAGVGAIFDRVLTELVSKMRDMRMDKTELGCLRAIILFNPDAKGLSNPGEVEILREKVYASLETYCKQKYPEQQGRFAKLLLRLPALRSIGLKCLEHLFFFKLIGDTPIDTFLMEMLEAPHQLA
Description: holoreceptor transactivation assay, RXRβ. Format: cell-based. The note with it: for pEC50: holoreceptor assay, read-out: RXR Trans EC50 β; for Emax: relative to 10^-6 M cyclopropyl penta-2,4-dienoic acid reference, read-out: % efficacy, RXRβ transactivation. An excerpt:
(§1) Other assays described below, measure the ability of the compounds of the present invention to bind to, and/or activate various retinoid receptor subtypes. When in these assays a compound binds to a given receptor subtype and activates the transcription of a reporter gene through that subtype, then the compound is considered an agonist of that receptor subtype. […] In the below described assays the ability of the compounds to bind to RARα, RARβ, RARγ, RXRα, RXRβ and RXRγ receptors, and the ability or inability of the compounds to activate transcription of a reporter gene through these receptor subtypes can be tested. […] However, some of the compounds of the invention may behave as retinoid antagonists or partial antagonists and/or as inverse agonists. Because of the complex distribution of the different retinoid receptors in various organs of the mammalian body partial agonists and partial antagonists and compounds which have the characteristics of both may lend themselves to particularly useful therapeutic applications and may avoid serious side effects of conventional retinoid drugs.
(§2) A holoreceptor transactivation assay and a ligand binding assay which measure the antagonist/agonist like activity of the compounds of the invention, or their ability to bind to the several retinoid receptor subtypes, respectively, are described in published PCT Application No. WO WO93/11755 (particularly on pages 30-33 and 37-41) published on Jun. 24, 1993, the specification of which is also incorporated herein by reference. A detailed experimental procedure for holoreceptor transactivations has been described by Heyman et al. Cell 68, 397-406, (1992); Allegretto et al. J. Biol. Chem. 268, 26625-26633, and Mangelsdorf et al. The Retinoids: Biology, Chemistry and Medicine, pp 319-349, Raven Press Ltd., New York, which are expressly incorporated herein by reference. The results obtained in this assay are expressed in EC50 numbers, as they are also in the chimeric receptor transactivation assay. The results of ligand binding assay are expressed in Kd numbers. (See Cheng et al. Biochemical Pharmacology Vol. 22 pp 3099-3108, expressly incorporated herein by reference.)
(§3) Table 1 discloses the activity of certain exemplary compounds of the invention in the above-described chimeric receptor transactivation assay, holoreceptor transactivation assay and a ligand binding assays. Particularly, the transactivation data pertaining to RAR receptors were obtained in the chimeric assay, and the data pertaining to transactivation of RXR receptors were obtained in the holoreceptor transactivation assay.

Another test concerns the target T2, RXRγ (Mus musculus, UniProt P28705).
T2 construct: expressed in transfected cells
T2 sequence (P28705 1-463): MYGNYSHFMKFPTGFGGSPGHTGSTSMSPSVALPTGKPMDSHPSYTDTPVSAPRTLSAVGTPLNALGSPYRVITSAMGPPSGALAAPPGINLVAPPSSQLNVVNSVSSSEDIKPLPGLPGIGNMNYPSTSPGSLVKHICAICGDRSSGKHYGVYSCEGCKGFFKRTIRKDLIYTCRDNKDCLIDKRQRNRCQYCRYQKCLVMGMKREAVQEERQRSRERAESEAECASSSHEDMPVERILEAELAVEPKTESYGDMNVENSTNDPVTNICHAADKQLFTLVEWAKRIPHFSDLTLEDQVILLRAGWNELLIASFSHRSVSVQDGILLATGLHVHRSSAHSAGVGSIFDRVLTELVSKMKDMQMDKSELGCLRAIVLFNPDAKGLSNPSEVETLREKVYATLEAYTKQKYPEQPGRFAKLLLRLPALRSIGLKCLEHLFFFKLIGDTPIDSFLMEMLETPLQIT
Description: holoreceptor transactivation assay, RXRγ. Format: cell-based. Particulars: for pEC50: holoreceptor assay, read-out: RXR Trans EC50 γ; for Emax: relative to 10^-6 M cyclopropyl penta-2,4-dienoic acid reference, read-out: % efficacy, RXRγ transactivation.
Source text: as §1, §2, §3

For another test, the target named is T3, RXRα (Homo sapiens, UniProt P19793).
T3 construct: expressed in transfected cells
T3 sequence (P19793 1-462): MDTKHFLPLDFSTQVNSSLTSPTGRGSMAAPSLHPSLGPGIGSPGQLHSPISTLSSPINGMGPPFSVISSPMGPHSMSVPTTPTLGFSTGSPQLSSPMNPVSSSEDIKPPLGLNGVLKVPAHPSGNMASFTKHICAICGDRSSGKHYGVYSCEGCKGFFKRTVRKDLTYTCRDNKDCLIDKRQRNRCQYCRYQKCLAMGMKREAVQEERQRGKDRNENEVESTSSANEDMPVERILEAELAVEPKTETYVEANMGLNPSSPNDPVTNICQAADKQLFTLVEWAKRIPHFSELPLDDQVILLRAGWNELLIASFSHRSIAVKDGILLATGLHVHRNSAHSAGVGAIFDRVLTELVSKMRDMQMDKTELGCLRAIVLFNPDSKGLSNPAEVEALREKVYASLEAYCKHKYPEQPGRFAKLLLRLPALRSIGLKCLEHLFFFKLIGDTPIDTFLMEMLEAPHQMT
Description: ligand binding assay, RXRα. The note with it: read-out: RXR Bind Ki α.
Source text: as §1, §2, §3

The target in the next test is T4, RARγ (Homo sapiens, UniProt P13631).
T4 sequence (P13631 1-454): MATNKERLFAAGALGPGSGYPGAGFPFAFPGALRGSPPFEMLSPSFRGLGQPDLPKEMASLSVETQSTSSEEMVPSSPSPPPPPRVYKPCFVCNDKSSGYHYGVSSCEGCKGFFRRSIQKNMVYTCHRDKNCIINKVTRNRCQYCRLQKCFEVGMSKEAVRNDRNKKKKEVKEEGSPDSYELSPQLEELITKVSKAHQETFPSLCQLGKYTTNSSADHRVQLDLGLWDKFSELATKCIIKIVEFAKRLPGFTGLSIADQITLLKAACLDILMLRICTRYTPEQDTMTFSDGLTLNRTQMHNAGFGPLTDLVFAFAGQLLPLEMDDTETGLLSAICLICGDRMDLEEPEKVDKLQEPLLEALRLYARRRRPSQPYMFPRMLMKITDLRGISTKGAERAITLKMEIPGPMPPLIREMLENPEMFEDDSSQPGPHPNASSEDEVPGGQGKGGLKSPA
Description: ligand binding assay, RARγ. Particulars: read-out: RAR Bind Ki γ.
Source text: as §1, §2, §3

For `Cc1cc2c(cc1N(C)c1ccc(C(=O)O)cc1)N(C(C)C)CCC2(C)C` [Compound 51, 4-[(1-Isopropyl-4,4,6-trimethyl-1,2,3,4-tetrahydro-quinolin-7-yl)-methyl-amino]-benzoic acid], the pEC50 on RXRβ was 6.43; at RXRγ, 7.33. Besides, the values for the Emax at RXRβ and at RXRγ were 119% and 104%, respectively. Besides, the figures for the pKi on RXRα and at RARγ were 6.66 and less than 5.00, respectively.

Take `CCCN(c1ccc(C(=O)O)cc1)c1cc2c(cc1C)C(C)(C)CCN2C(C)C` [Compound 53, 4-[(1-Isopropyl-4,4,6-trimethyl-1,2,3,4-tetrahydro-quinolin-7-yl)-propyl-amino]-benzoic acid]: the results for the pEC50 on RXRβ and on RXRγ were 8.70 and 9.52, respectively. Further, the Emax on RXRβ is 93%; at RXRγ, 96%. The pKi on RXRα is 7.36; at RARγ, 4.77.
